Data as given in patent US5840835A, “Inhibitors of peptide binding to MHC class II proteins” (Merck & Co., Inc., priority 1996, dated 1998).
Where two headings read alike, the source gives them in different places.

Target: T1, DR1Dw1 (Homo sapiens, UniProt P01903+P01911, A100R/D57E/F55L/F60I/F76Y/I96L/L162R/M171V/P40L/Q125E/R42F/V115G/Y59C)
T1 construct: these are Drosophila transmembrane DR; made in house
Assay: Inhibition of biotinylated RMBP 90-102 peptide binding to MHC class II DR1 (europium-streptavidin capture assay)
Method: In studies optimizing the assay it was determined that only between 5 to 10% of the DR molecules are capable of binding added peptide. Therefore, the effective concentration of DR1Dw1 and DR4Dw4 was approximately 0.125 and 1.0 nM, respectively. […] The DR-peptide complexes (50 μL) are transferred to wells of a 96-well EIA plate precoated with LB3.1, the monoclonal antibody which recognizes the DR alleles of MHC Class II, and blocked with PBS with fetal calf serum (FCS). An additional 50 μL of 50 mM Tris, pH 7.0, containing 0.75% octyl glucoside is added to each well and the mixture incubated overnight at 4° C. Excess peptide is removed by washing with PBS containing 0.05% Tween 20 (Polyoxyethylene sorbitan monolaurate) and 0.01% NaN3. Europium-labeled streptavidin (Wallac Inc.) is added and incubated overnight. After washing, complexes are measured by the addition of Enhance™ buffer, the tradename for 0.1M acetate phthalate buffer, pH 3.2, containing 0.1% Triton X-100, tradename for polyoxyethylene ethers and other surface active compounds of Union Carbide Chemicals and Plastics Co., Inc. (particularly, a non-ionic surfactant for recovery of membrane components under non-denaturing conditions) 15 μM 2-naphthoyltrifluoroacetone, and 50 μM tri-N-octylphosphine oxide, which buffer releases the chelated europium from streptavidin and forms a highly fluorescent micellar solution. The resultant fluorescence is measured using a fluorescent plate reader (e.g., DELPHIA, Wallac, Inc.). The data are analyzed using a four-parameter logistical curve […] program (e.g., SigmaPlot) that calculates the concentration of biotinylated peptide giving a half-maximal signal (ED50).
The inhibition assay format is identical to the procedure described above with the exception that the unlabeled antagonist is serially diluted and incubated with constant concentrations of biotinylated RMBP 90-102 (0.3 nM for DR1Dw1 or 0.9 nM for DR4Dw4) and the MHC class II proteins. The concentration of unlabeled compound that prevents 50% of the labeled peptide from binding is the IC50 value. The concentration of the biotinylated RMBP 90-102 in each assay is experimentally determined to be […] one-sixth of its measured ED50 to assure the inhibition was primarily measuring the binding characteristics of the competitor.
In particular, a protocol for carrying out the inhibition assay is given below.
Preparation of antibody plate
Add 115 μL of 5 μg/mL LB3.1 in 50 mM Tris HCl pH 9.6/azide to each well of a Costar EIA plate. Incubate the plate overnight at 4° C.
Wash the plate 4 times with water/0.05% Tween-20/azide. Add 200 μL of PBS/5% FCS/azide for 1 hour at 4° C. to block the plate. The plate may be held at this point for later use or used immediately.
Flip out the block. It is not necessary to wash the plate. At 50 μL of load buffer (50 mM Tris HCl, pH 8.0 0.75% octylglucoside). Add to this volume 50 μL of the reaction mix from day 2, step 3 below.
Preparation of reaction mixture
(1) Add the following to a polypropylene round bottom 96-well plate such as a Costar #3794:
(A) Diluent (Ca Mg free PBS adjusted to pH 6.5 with 0.1M KH2 PO4 /0.75% octylglucoside/azide)0.81 μL
(B) Competitor at 16.6 times the final concentration in diluent or diluent alone 0.9 μL
(C) Biotinylated rat myelin basic protein (BRMBP) 90-102; 1.5 nM for DR1 or 4.5 nM for DR4 (These are 5×stocks of final concentrations of 0.3 nM/DR1 or 0.9 nM/DR4) 30 μL
(D) 6.25 nM DR1Dw1 or 50 nM DR4Dw4 (these are Drosophila transmembrane DR) (This is a 5×stock of the final concentration of 1.25 or 10 nM.) 30 μL Add the DR last and mix well at this time 150 μL
(2) Incubate at 37° C. for 20 min and 5 hours.
(3) Add 50 μL of this reaction mixture to one well of the blocked antibody plate from day 2 above.
(4) Incubate overnight at 4° C. to capture the DR-peptide complexes.
(5) Wash 4× with H2 O/0.05% Tween-20/azide […]

[1] = 20 min incubation at 37° C., 0.3 nM biotinylated RMBP 90-102, 1.25 nM DR1Dw1, pH 6.5, read-out: IC50 /nM @ 20 min
[2] = 5 hours incubation at 37° C., 0.3 nM biotinylated RMBP 90-102, 1.25 nM DR1Dw1, pH 6.5, read-out: IC50 /nM @ 5 Hrs

| Substance | IC50 [1] | IC50 [2] |
| --- | --- | --- |
| EtOCO-(L)Cha (L)Lys Nva.psi.[(E,CH=CH]Leu-NH2 TFA SALT [Example 5] | 21 nM | 142 nM |
| N-(3-CYCLOHEXYLPROPYL)-(L)(ε-NICOTINOYL)Lys Nva.psi.[E,CH=CH]Nle-NH2 TFA SALT [Example 7] | 409 nM | 2280 nM |
| α-(3-CYCLOHEXYLPROPYL)-(L)(3-PYRIDYL)Ala Nva.psi.[(E)CH=CH]Leu-NH2 TFA SALT [Example 9] | 2520 nM | 16600 nM |
| α-(3-CYCLOHEXYLPROPYL)-(L)(ε-NICOTINOYL)Lys Nva.psi.[(E)CH=CH]Leu-NH2 TFA SALT [Example 8] | 1050 nM | 5600 nM |

More lines, in order of falling IC50 [1], values ahead:

| IC50 [1] | IC50 [2] | Substance |
| --- | --- | --- |
| 616 nM |  | EtOCO-(L)Cha (L)Lys Nva.psi.[trans,cPr]Nle-NH2 TFA SALT [Example 6] |
| 37 nM | 194 nM | EtOCO--(L)Cha(L)Lys Nva.psi.[E,CH=CH]Nle-NH2 TFA [Example 4] |
